Reference: patent US8039496B2, “Therapeutic compounds” (Allergan, Inc., priority 2007, dated 2011)
Read-outs that look alike come from different tables or passages of the source.

Columns and labels:
[1] = biological target: T1, hEP3 (Homo sapiens, UniProt P43115); experiment: Other receptors: hEP3 / hEP3A; assay type: cell-based
T1 sequence (P43115 1-390): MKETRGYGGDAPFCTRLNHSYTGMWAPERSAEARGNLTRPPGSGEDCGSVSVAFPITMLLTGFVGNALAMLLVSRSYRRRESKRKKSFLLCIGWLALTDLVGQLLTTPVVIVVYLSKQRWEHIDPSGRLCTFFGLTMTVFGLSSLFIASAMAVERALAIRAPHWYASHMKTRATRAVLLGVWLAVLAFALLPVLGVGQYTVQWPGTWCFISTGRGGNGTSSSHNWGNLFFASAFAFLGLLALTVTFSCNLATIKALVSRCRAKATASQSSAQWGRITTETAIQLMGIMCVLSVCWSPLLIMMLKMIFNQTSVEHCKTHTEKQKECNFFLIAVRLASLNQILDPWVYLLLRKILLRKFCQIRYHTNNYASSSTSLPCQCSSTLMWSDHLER
Excerpt: (§1) U.S. patent application Ser. No. 11/553,143, filed on Oct. 26, 2006, describes the methods used to obtain the in vitro data in the table below.

[2] = biological target: T2, hEP4 (Homo sapiens, UniProt P35408); experiment: hEP4 flipr functional assay; assay type: cell-based
T2 sequence (P35408 whole entry): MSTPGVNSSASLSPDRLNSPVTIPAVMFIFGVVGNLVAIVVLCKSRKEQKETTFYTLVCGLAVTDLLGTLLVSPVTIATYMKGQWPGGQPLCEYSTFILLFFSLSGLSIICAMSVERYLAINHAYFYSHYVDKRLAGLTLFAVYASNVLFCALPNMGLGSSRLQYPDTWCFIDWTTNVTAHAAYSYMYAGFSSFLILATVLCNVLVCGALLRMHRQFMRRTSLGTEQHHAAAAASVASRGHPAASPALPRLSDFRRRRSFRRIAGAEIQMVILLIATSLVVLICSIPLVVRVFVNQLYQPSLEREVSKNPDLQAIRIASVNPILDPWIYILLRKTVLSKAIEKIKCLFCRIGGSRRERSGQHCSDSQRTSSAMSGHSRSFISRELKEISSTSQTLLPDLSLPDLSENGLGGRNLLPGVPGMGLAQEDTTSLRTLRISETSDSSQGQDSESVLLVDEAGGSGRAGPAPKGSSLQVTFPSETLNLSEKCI
Excerpt: as §1

[3] = biological target: T3, hEP2 (Homo sapiens, UniProt P43116); experiment: hEP2 flipr functional assay; assay type: cell-based
T3 sequence (P43116 whole entry): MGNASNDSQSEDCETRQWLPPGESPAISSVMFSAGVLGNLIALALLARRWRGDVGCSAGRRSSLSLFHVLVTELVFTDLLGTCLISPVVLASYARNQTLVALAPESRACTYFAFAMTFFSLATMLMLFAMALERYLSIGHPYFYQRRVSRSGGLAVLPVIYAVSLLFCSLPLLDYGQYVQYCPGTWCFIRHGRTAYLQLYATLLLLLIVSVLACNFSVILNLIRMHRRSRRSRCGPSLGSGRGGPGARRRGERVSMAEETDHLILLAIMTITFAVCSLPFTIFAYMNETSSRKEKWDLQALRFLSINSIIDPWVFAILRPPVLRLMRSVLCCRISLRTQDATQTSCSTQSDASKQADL
Excerpt: as §1

[4] = biological target: T4, hDP (Homo sapiens, UniProt Q13258); experiment: Other receptors: hDP; assay type: cell-based
T4 sequence (Q13258 1-359): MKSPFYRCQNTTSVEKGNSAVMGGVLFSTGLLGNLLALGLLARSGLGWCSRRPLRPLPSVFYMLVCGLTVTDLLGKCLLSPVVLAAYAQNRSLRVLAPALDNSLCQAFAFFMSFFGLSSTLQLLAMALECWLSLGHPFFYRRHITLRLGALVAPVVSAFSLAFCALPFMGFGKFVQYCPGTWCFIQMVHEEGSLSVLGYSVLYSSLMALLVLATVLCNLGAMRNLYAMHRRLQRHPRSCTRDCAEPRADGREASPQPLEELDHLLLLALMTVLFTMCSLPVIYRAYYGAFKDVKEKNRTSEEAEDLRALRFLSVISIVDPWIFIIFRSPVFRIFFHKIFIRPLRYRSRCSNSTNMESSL
Excerpt: as §1

[5] = biological target: T3, hEP2; experiment: hEP2 binding (Ki)
Excerpt: as §1

[6] = biological target: T2, hEP4; experiment: hEP4 binding (Ki)
Excerpt: as §1

[7] = biological target: T5, hEP1 (Homo sapiens, UniProt P34995); experiment: Other receptors: hEP1; assay type: cell-based
T5 sequence (P34995 1-402): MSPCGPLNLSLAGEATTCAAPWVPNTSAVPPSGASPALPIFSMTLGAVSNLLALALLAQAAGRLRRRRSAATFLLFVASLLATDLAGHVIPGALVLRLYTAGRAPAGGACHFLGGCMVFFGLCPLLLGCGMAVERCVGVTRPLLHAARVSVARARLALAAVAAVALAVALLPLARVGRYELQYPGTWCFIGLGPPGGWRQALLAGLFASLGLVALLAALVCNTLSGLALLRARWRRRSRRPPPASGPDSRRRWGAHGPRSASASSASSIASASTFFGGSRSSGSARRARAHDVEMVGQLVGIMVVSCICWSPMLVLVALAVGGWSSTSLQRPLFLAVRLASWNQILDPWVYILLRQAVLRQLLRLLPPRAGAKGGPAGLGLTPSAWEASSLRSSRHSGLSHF
Excerpt: as §1

[8] = biological target: T3, hEP2; experiment: hEP2 cAMP functional assay; assay type: cell-based
Excerpt: as §1

[9] = biological target: T6, hTP (Homo sapiens, UniProt P21731); experiment: Other receptors: hTP; assay type: cell-based; details: the 2nd table
T6 sequence (P21731 1-343): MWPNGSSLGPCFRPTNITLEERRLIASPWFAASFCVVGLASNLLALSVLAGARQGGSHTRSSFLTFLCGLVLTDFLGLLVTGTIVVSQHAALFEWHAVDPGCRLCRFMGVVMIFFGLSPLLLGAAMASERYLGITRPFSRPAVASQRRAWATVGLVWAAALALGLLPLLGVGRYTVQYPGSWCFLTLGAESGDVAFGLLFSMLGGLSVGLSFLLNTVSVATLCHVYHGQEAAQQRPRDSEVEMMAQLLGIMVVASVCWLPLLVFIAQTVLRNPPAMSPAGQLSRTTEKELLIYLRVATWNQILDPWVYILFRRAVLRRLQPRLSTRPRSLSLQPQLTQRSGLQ
Excerpt: as §1

[10] = the 3rd table, read-out: Other Receptors (ED50 in nM) hEP3A
[11] = the 3rd table, read-out: EP4 data flipr EC50
[12] = the 3rd table, read-out: EP2 data flipr EC50
[13] = the 3rd table, read-out: Other Receptors (ED50 in nM) hDP
[14] = the 3rd table, read-out: EP2 data Ki
[15] = the 3rd table, read-out: EP4 data KI
[16] = the 3rd table, read-out: Other Receptors (ED50 in nM) hEP1
[17] = the 3rd table, read-out: EP2 data cAMP EC50
[18] = the 2nd table, read-out: Other Receptors hEP3
[19] = the 2nd table, read-out: hEP2 flipr EC50
[20] = the 2nd table, read-out: hEP2 Ki
[21] = the 2nd table, read-out: hEP2 cAMP EC50

| SMILES | EC50 [1, 10] | EC50 [2, 11] | EC50 [3, 12] | EC50 [4, 13] | Ki [5, 14] | Ki [6, 15] | EC50 [7, 16] | EC50 [8, 17] | EC50 [1, 18] | EC50 ([2]; the 2nd table, read-out: hEP4 flipr EC50) | EC50 [3, 19] | Ki [5, 20] | Ki ([6]; the 2nd table, read-out: hEP4 Ki) | EC50 ([7]; the 2nd table, read-out: Other Receptors hEP1) | EC50 [8, 21] | EC50 [9] | EC50 ([4]; the 2nd table, read-out: Other Receptors hDP) |
| --- | --- | --- | --- | --- | --- | --- | --- | --- | --- | --- | --- | --- | --- | --- | --- | --- | --- |
| CCc1cccc(OC[C@@H]2[C@@H](CCCc3ccc(C(=O)O)s3)[C@H](Cl)C[C@H]2O)c1 [5-(3-((1R,2S,3R,5R)-5-chloro-2-((3-ethylphenoxy)methyl)-3-hydroxycyclopentyl)propyl)thiophene-2-carboxylic acid] | 3570 nM | 6740 nM | 447 nM | 4440 nM | 4 nM | 214 nM | 31500 nM | 0.4 nM | – | – | – | – | – | – | – | – | – |
| CCCc1cccc(OC[C@@H]2[C@@H](CCCc3ccc(C(=O)O)s3)[C@H](Cl)C[C@H]2O)c1 [5-(3-((1R,2S,3R,5R)-5-chloro-3-hydroxy-2-((3-propylphenoxy)methyl)cyclopentyl)propyl)thiophene-2-carboxylic acid] | 6520 nM | > 10000 nM | 33 nM | – | 6 nM | 471 nM | 17900 nM | 0.4 nM | – | – | – | – | – | – | – | – | – |
| O=C(O)c1ccc(CCC[C@@H]2[C@@H](COc3cccc4c3CCCC4)[C@H](O)C[C@H]2Cl)s1 [5-(3-((1R,2S,3R,5R)-5-chloro-3-hydroxy-2-((5,6,7,8-tetrahydronaphthalen-1-yloxy)methyl)cyclopentyl)propyl)thiophene-2-carboxylic acid] | 5790 nM | 9830 nM | 175 nM | 8620 nM | 37 nM | 1460 nM | – | 2.5 nM | – | – | – | – | – | – | – | – | – |
| O=C(O)c1ccc(CCC[C@@H]2[C@@H](COc3cccc4ccccc34)[C@H](O)C[C@H]2Cl)s1 [5-(3-((1R,2S,3R,5R)-5-chloro-3-hydroxy-2-((naphthalen-1-yloxy)methyl)cyclopentyl)propyl)thiophene-2-carboxylic acid] | 4030 nM | > 10000 nM | 949 nM | 4150 nM | 5.5 nM | 114 nM | – | 0.7 nM | – | – | – | – | – | – | – | – | – |
| O=C(O)c1ccc(CCC[C@@H]2[C@@H](COc3ccccc3)[C@H](O)C[C@H]2Cl)s1 [5-(3-((1R,2S,3R,5R)-5-chloro-3-hydroxy-2-(phenoxymethyl)cyclopentyl)propyl)thiophene-2-carboxylic acid] | 9650 nM | 8420 nM | 235 nM | 9090 nM | 29 nM | 2320 nM | – | 3.4 nM | – | – | – | – | – | – | – | – | – |
| COCc1cc(Cl)cc(OC[C@@H]2[C@@H](C/C=C\CCCC(=O)O)[C@H](Cl)C[C@H]2O)c1 [(Z)-7-[(1R,2S,3R,5R)-5-Chloro-2-(3-chloro-5-methoxymethyl-phenoxymethyl)-3-hydroxy-cyclopentyl]-hept-5-enoic acid] | – | – | – | – | – | – | – | – | 7210 nM | 4820 nM | 3410 nM | 39 nM | 1450 nM | 5180 nM | 8 nM | > 10000 nM | – |
| O=C(O)CCC/C=C\C[C@@H]1[C@@H](COc2cc(Cl)cc(CCO)c2)[C@H](O)C[C@H]1Cl [(Z)-7-{(1R,2S,3R,5R)-5-Chloro-2-[3-chloro-5-(2-hydroxyethyl)-phenoxymethyl]-3-hydroxy-cyclopentyl}-hept-5-enoic acid] | – | – | – | – | – | – | – | – | 8830 nM | – | 644 nM | 107 nM | – | – | 7 nM | > 10000 nM | > 10000 nM |
